Measured values: ChEMBL document CHEMBL5696439 (Cancer Res, 2010)
The source made the active and inactive calls. No cut-off for these calls is given here.

Assays:
[1] = tested on: Tyrosine-protein kinase ABL1 (Homo sapiens), P00519 [T315I]; experiment: Inhibition of recombinant human full-length His-tagged ABL1 T315I mutant expressed in insect cells at 2 uM using Tyr 02 as substrate measured after 1 hr by Z'-LYTE assay relative to control; conditions: Insect cell
[2] = target: Tyrosine-protein kinase receptor UFO (Homo sapiens) (UniProt P30530); experiment: Inhibition of recombinant human His-tagged AXL (473 to end residues) expressed in insect cells at 2 uM using Tyr 06 as substrate measured after 1 hr by Z'-LYTE assay relative to control; conditions: Insect cell
[3] = target: Dual specificity tyrosine-phosphorylation-regulated kinase 3 (Homo sapiens) (UniProt O43781); experiment: Inhibition of recombinant human full-length GST-tagged DYRK3 expressed in insect cells at 2 uM using Ser/Thr 09 as substrate measured after 1 hr by Z'-LYTE assay relative to control; conditions: Insect cell
[4] = target: Serine/threonine-protein kinase MARK1 (Homo sapiens) (UniProt Q9P0L2); experiment: Inhibition of recombinant human full length GST-tagged MARK1 expressed in baculovirus expression system at 2 uM using Ser/Thr 21 as substrate measured after 1 hr by Z'-LYTE assay relative to control
[5] = target: Serine/threonine-protein kinase MARK2 (Homo sapiens) (UniProt Q7KZI7); experiment: Inhibition of recombinant human full length GST-tagged MARK2 expressed in insect cells at 2 uM using Ser/Thr 21 as substrate measured after 1 hr by Z'-LYTE assay relative to control; conditions: Insect cell
[6] = target: Serine/threonine-protein kinase D3 (Homo sapiens) (UniProt O94806); experiment: Inhibition of recombinant human full length GST-tagged PRKCN expressed in insect cells at 2 uM using Ser/Thr 17 as substrate measured after 1 hr by Z'-LYTE assay relative to control; conditions: Insect cell
[7] = target: cGMP-dependent protein kinase 1 (Homo sapiens) (UniProt Q13976); experiment: Inhibition of recombinant human full length GST-tagged PRKG1 expressed in baculovirus expression system at 2 uM using Ser/Thr 01 as substrate measured after 1 hr by Z'-LYTE assay relative to control
[8] = target: Tyrosine-protein kinase ZAP-70 (Homo sapiens) (UniProt P43403); experiment: Inhibition of recombinant human full length His-tagged ZAP70 expressed in baculovirus expression system at 2 uM using […] as substrate measured after 1 hr by Z'-LYTE assay relative to control
HCT-116 = experiment: Induction of apoptosis in human HCT-116 cells assessed as increase in G1 phase at 1 micromol/L incubated for 24 hrs by FACS analysis; type: functional, cell-based; conditions: dose 1.0 µmol/L
HT-29 = experiment: Antitumor activity against human HT-29 cells xenografted in female nude mouse model assessed as reduction in P-AKT at T308 level at 50 mg/kg, iv administered once a week and measured at least 8 hrs by immunoblot analysis; type: functional, organism-based
mTORC1 (Homo sapiens) = mTORC1 (Homo sapiens) (UniProt P42345+Q8N122+Q9BVC4); conditions: U-87 MG, dose 0.025-2 µmol/L, time 6.0 hrs
mTORC2 (Homo sapiens) = mTORC2 (Homo sapiens) (UniProt P42345+Q6R327+Q9BVC4+Q9BPZ7); conditions: PC3MM2, dose 0.1-1 µM, time 6.0 hrs

Chain of Serine/threonine-protein kinase D3 (Homo sapiens) (O94806 whole entry): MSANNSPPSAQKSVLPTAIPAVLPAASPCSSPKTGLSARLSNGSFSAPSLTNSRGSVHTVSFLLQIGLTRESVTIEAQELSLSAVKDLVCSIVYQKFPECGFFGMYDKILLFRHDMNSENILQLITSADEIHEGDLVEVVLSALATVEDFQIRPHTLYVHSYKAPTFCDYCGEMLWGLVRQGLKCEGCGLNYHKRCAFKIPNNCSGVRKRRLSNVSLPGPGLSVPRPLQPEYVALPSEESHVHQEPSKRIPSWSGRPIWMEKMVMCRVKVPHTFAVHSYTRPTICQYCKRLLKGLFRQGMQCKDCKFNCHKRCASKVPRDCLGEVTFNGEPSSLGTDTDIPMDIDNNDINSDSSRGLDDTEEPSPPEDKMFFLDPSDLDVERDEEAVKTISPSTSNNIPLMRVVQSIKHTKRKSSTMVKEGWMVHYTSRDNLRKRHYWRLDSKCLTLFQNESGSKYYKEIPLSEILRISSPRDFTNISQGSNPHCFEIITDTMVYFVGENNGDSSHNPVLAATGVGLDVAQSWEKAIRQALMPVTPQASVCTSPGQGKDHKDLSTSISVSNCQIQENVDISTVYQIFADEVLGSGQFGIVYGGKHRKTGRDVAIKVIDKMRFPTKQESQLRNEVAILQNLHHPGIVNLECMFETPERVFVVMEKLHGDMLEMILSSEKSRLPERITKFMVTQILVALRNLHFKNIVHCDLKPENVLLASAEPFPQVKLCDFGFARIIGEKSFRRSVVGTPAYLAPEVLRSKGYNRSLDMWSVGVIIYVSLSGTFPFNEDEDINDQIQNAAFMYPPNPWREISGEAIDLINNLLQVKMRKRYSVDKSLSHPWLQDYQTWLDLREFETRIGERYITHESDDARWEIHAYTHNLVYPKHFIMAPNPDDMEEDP
Chain of Serine/threonine-protein kinase MARK2 (Homo sapiens) (Q7KZI7 whole entry): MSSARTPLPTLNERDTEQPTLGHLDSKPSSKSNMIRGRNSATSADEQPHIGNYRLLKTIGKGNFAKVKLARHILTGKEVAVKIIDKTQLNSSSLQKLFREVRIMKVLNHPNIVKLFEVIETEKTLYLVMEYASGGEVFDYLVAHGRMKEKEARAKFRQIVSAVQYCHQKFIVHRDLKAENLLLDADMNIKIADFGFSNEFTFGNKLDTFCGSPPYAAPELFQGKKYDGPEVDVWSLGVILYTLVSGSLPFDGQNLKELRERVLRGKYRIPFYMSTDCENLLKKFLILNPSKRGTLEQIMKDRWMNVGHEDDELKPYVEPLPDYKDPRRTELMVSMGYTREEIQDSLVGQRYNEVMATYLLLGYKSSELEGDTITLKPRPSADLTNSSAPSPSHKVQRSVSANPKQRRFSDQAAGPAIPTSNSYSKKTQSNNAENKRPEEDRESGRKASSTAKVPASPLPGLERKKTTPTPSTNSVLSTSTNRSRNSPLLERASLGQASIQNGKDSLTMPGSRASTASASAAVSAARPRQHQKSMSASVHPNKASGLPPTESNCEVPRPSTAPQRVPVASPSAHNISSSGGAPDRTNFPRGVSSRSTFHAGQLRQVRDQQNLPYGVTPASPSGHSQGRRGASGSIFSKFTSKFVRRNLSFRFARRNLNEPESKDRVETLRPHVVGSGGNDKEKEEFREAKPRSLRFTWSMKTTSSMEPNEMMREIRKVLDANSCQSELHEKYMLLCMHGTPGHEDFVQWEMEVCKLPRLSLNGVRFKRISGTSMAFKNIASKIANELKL
Chain of Serine/threonine-protein kinase MARK1 (Homo sapiens) (Q9P0L2 whole entry, looked up): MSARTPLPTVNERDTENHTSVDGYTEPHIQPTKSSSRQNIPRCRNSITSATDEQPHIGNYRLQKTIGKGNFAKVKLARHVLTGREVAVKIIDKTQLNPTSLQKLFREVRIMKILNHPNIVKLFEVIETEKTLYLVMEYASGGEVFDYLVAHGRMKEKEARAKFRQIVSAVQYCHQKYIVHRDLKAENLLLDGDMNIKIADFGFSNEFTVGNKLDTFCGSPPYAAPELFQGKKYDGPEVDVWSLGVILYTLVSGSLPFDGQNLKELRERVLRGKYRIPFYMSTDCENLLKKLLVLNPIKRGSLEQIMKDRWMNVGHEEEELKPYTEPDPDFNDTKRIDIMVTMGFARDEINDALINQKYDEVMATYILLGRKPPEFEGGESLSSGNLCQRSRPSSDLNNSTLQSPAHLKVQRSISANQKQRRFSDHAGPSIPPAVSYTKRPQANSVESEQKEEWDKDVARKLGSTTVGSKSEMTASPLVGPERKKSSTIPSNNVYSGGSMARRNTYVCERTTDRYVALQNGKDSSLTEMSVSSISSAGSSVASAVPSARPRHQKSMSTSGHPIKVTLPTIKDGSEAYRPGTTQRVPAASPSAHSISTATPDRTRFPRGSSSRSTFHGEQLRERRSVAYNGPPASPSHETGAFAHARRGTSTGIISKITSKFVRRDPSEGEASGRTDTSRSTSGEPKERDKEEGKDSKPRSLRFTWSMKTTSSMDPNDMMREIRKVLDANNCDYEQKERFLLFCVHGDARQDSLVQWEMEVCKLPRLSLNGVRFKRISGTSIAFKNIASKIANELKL
Chain of Tyrosine-protein kinase receptor UFO (Homo sapiens) (P30530 whole entry): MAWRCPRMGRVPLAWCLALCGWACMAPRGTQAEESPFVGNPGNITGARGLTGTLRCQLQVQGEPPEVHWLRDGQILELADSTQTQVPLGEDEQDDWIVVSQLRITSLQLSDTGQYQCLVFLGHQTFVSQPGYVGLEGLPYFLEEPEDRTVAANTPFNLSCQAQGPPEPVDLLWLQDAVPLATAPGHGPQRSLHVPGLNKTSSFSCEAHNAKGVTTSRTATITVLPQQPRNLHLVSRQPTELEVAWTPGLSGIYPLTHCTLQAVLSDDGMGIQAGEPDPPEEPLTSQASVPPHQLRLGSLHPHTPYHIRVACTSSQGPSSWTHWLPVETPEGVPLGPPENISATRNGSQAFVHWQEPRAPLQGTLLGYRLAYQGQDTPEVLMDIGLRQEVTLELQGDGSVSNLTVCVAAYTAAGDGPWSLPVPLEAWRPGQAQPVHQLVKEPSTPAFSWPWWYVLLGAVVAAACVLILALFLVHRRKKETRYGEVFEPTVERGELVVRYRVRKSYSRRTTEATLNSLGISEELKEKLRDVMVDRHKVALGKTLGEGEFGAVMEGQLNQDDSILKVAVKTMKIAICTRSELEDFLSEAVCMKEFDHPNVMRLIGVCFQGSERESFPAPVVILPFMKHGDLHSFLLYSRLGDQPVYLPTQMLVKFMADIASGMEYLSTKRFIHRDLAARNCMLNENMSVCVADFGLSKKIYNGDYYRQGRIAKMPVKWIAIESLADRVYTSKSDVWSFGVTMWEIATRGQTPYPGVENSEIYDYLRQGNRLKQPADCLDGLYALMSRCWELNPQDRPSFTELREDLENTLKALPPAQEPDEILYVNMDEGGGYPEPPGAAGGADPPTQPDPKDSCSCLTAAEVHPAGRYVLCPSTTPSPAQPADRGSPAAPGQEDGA
Chain of Tyrosine-protein kinase ZAP-70 (Homo sapiens) (P43403 whole entry): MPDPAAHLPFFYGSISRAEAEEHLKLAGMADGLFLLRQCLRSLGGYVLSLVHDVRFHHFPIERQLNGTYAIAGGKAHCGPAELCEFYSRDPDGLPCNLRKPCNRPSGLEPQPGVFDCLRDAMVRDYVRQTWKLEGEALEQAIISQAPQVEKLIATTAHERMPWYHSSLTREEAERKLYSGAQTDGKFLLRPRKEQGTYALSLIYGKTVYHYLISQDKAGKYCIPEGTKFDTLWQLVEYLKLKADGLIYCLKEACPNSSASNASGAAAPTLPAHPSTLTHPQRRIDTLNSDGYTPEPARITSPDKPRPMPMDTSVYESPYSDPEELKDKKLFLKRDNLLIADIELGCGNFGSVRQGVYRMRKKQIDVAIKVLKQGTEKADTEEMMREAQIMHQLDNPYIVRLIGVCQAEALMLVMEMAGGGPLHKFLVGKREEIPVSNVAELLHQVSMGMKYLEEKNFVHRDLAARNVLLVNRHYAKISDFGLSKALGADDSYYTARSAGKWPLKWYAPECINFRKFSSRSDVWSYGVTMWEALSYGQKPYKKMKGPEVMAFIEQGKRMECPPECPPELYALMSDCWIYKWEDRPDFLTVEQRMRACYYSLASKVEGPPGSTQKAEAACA
Chain of cGMP-dependent protein kinase 1 (Homo sapiens) (Q13976 whole entry): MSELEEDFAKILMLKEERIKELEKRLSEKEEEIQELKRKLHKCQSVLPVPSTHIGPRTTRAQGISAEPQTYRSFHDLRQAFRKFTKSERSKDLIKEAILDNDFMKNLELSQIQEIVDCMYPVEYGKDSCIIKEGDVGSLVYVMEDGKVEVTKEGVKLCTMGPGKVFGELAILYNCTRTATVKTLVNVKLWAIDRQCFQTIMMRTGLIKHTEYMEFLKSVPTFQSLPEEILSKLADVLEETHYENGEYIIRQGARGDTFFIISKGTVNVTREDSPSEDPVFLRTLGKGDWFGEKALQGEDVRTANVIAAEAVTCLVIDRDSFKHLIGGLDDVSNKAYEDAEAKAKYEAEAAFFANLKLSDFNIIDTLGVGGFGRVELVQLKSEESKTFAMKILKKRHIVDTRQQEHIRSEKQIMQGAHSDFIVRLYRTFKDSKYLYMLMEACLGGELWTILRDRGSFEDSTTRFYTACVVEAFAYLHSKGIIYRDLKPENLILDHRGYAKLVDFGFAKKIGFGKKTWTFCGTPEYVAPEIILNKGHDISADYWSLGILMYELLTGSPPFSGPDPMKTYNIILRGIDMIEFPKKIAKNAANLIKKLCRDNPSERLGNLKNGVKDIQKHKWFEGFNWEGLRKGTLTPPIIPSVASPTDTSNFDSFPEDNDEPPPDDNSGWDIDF

For `CNC(=O)Nc1ccc(-c2nc(N3CC4CCC(C3)O4)c3cnn(C4CCC5(CC4)OCCO5)c3n2)cc1`, the inhibition [1] was 0%, the inhibition [2] was 2% and the inhibition [3] was -1%. The inhibition [4] was 13%, the inhibition [5] was 12% and the inhibition [6] was 4%. For the same molecule, the inhibition [7] was 1%, the inhibition [8] was 7% and the Activity (HCT-116) was “Active”. The Activity (HT-29) was “inactive”, the inhibition (mTORC1 (Homo sapiens)) was “Active” and the inhibition (mTORC2 (Homo sapiens)) was “Active”.
